Experiments:
Type in all cases: cell-based
[1] = system: P-388 (suspension culture of a lymphoid neoplasm from DBA/2 mouse); assay: in vitro cytotoxic assay, P-388 cells; details: P388, 72 h, three days of incubation, approximate IC50 by growth vs control wells
Experimental: (§1) Cells were maintained in logarithmic phase of growth in Eagle's Minimum Essential Medium, with Earle's Balanced Salts, with 2.0 mM L-glutamine, with non-essential amino acids, without sodium bicarbonate (EMEM/neaa); supplemented with 10% Fetal Calf Serum (FCS), 10^−2 M sodium bicarbonate and 0,1 g/l penicillin-G+streptomycin sulfate.
(§2) A screening procedure has been carried out to determine and compare the antitumor activity of these compounds, using an adapted form of the method described by Bergeron et al. (Reference 3). The antitumor cells employed were P-388 (suspension culture of a lymphoid neoplasm from DBA/2 mouse), A-549 (monolayer culture of a human lung carcinoma), HT-29 (monolayer culture of a human colon carcinoma) and MEL-28 (monolayer culture of a human melanoma).
(§3) P-388 cells were seeded into 16 mm wells at 1×10^4 cells per well in 1 ml aliquots of MEM 5FCS containing the indicated concentration of drug. A separate set of cultures without drug was seeded as control growth to ensure that cells remained in exponential phase of growth. All determinations were carried out in duplicate. After three days of incubation at 37° C., 10% CO2 in a 98% humid atmosphere, an approximately IC50 was determined by comparing the growth in wells with drug to the growth in wells control.

[2] = system: HT-29 (monolayer culture of a human colon carcinoma); assay: in vitro cytotoxic assay, HT-29 cells; details: 72 h, three days of incubation, Crystal Violet staining, approximate IC50
Experimental: as §1, §2
as §3, with “A-549, HT-29 and MEL-28” for “P-388”, “2×10^4” for “1×10^4”, “10FCS” for “5FCS”, “the wells were stained with 0.1% Crystal Violet. An” for “an”

[3] = system: MEL-28 (monolayer culture of a human melanoma); assay: in vitro cytotoxic assay, MEL-28 cells; details: SK-MEL-28, 72 h, three days of incubation, Crystal Violet staining, approximate IC50
Experimental: as §1, §2
as §3, with “A-549, HT-29 and MEL-28” for “P-388”, “2×10^4” for “1×10^4”, “10FCS” for “5FCS”, “the wells were stained with 0.1% Crystal Violet. An” for “an”

[4] = system: A-549 (monolayer culture of a human lung carcinoma); assay: in vitro cytotoxic assay, A-549 cells; details: A549, 72 h, three days of incubation, Crystal Violet staining, approximate IC50
Experimental: as §1, §2
as §3, with “A-549, HT-29 and MEL-28” for “P-388”, “2×10^4” for “1×10^4”, “10FCS” for “5FCS”, “the wells were stained with 0.1% Crystal Violet. An” for “an”

## C=C1CCC[C@H]2[C@@](C)(CC[C@@]3(C)CCn4cnc5ncnc(c54)N3O)[C@H](C)CC[C@@]12C [Asmarine B]
[1]
  IC50: 240 nM
[2]
  IC50: 120 nM
[3]
  IC50: 240 nM
[4]
  IC50: 120 nM

## C=C1CCC[C@@H]2[C@@](C)(CC[C@@]3(C)CCn4cnc5ncnc(c54)N3O)[C@H](C)CC[C@@]12C [Asmarine A]
[1]
  IC50: 1180 nM
[2]
  IC50: 1180 nM
[3]
  IC50: 1180 nM
[4]
  IC50: 1180 nM
